The text below walks through data of EP4806894A1, “TNAP INHIBITORY COMPOUND AND USE THEREOF” (Rednvia Co., Ltd., priority 2023, dated 2025).

Molecules are shown by their SMILES. pIC50: −log10 of the molar value. Where a name gives a salt, the structure may show the parent alone. Where only a bound is given, the exact number is not on record here.

One assay concerns saos-2 cells. The experiment in a line: Anticalcification efficacy in saos-2 cells (osteogenic medium, Alizarin Red staining). The class given is cell-based. To be noted: Homo sapiens, 168 h, test compound 1 µM, 7 days osteogenic medium, Alizarin Red absorbance 540 nm, read-out: calcification inhibition. The procedure:
To confirm the inhibitory effect of calcification in saos-2 cells in which calcification is induced by overexpression of TNAP, saos-2 cells were cultured in a culture medium in an incubator at 37°C, 95% humidity, and 5% CO2. RPMI-1640 (Corning) supplemented with 10% FBS (Gibco) and 1% Pen/Strep (Gibco) was used as the culture medium.
Saos-2 cells were seeded in a 48-well plate at the density of 1.5 x 10^4 cells/well and used in the experiment when they reached 80-90% confluence after stabilization for 2 days.
After saos-2 cells were cultured in a 48-well plate to 80-90% confluence, the culture medium was removed and replaced with an osteogenic medium (OM). DMEM (Gibco) containing 10% FBS, 1% Pen/Strep, 100 nM dexamethasone (Sigma), 10 mM β-glycerophosphate (Sigma), and 0.05 mM L-ascorbic acid (Sigma) was used as the OM. Osteogenic differentiation of saos-2 cells by OM was induced for 7 days, and OM was replaced every 2 to 3 days.
When inducing calcification through OM in saos-2 cells, the cells were treated with concentrations of […] of the TNAP inhibitor test compounds with the OM replacement cycle, except for the control group (OM).
After 7 days of OM induction, the medium was removed from each well and the plate was washed twice with PBS. Cells were fixed with 4% paraformaldehyde for 1 hour, then the fixative was removed and washed twice with deionized water (DW). ARS solution was added to the plate and shaken for 1 hour to stain the cells. When the cells were sufficiently stained red, the dye was removed, the cells were washed carefully with DW, dried, and then photographs were taken of the stained cells. The red-stained area represents calcification induced by OM, and the degree of calcification was determined based on the degree of redness. To quantify this, 10% cetylpyridinium chloride was dispensed into the wells and the dye was dissolved. The dye-dissolved solution was transferred to each well of a 96 well plate and absorbance was measured at 540 nm.
The degree of decrease in the measured absorbance by the test compounds based on the absorbance for OM was evaluated as the degree of inhibition of calcification.

In a further assay the target is T1, TNAP (Homo sapiens, UniProt P05186).
T1 sequence (P05186 18-502 limits assumed): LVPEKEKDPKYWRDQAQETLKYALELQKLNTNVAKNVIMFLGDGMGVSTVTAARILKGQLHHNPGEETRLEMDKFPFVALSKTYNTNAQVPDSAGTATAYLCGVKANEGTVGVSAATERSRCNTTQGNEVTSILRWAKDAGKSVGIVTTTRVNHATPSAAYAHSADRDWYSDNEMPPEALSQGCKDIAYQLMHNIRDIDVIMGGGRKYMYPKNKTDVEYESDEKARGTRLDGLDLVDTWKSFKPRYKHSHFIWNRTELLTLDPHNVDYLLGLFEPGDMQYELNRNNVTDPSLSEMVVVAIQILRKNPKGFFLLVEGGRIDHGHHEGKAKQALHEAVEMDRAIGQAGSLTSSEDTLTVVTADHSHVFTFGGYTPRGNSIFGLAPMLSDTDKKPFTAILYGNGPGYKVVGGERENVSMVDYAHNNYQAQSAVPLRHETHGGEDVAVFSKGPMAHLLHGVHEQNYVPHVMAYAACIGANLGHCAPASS
In words: TNAP inhibitory activity, colorimetric assay (alkaline phosphatase assay kit ab83369, pNPP substrate). The class given is biochemical. As to conditions: TNAP enzyme, 2 hours at room temperature, absorbance 405 nm. The procedure:
The TNAP inhibitory activity of the compounds according to the present invention was analyzed by colorimetric assay.
The experiments were performed according to the protocol of the alkaline phosphatase assay kit ab83369.
TNAP enzyme at a concentration of 0.2 ng/µl was dispensed into a 96-well plate (Costar) (10 µl/well), to which the 10-fold diluted test substance was added (15 µl/well). The plate was incubated at room temperature, shielded from light, for 10 minutes to allow the enzyme and compound to act. After incubation, 125 µl of 1 mM substrate (pNPP) was added to each well of the plate, and the plate was incubated for 2 hours at room temperature in a darkened state to allow the enzyme, substrate, and test compound to act. Absorbance was measured at 405 nm using a microplate reader (Tecan spark), and IC50 was calculated using GraphPad Prism 9. The amount of p-nitrophenol produced was calculated through the absorbance, and the degree of TNAP activity inhibition was evaluated through the degree of inhibition of p-nitrophenol production, and the concentration of the compound that inhibited 50% was calculated as the IC50 value.

For the compound `COc1ccc(-c2cn[nH]c2)cc1S(=O)(=O)Nc1cnc2c(c1)C(=O)NCC2` [Example 55, 2-methoxy-N-(5-oxo-5,6,7,8-tetrahydro-1,6-naphthyridine-3-yl)-5-(1H-pyrazole-4-yl)benzenesulfonamide], the inhibition at 1 µM with saos-2 cells is at least 50%. For the same compound, at TNAP, the pIC50 was 6.00 to 7.00.
As for `COc1ccc(C2=CCCCC2)cc1S(=O)(=O)Nc1cnc2c(c1)C(=O)NCC2` [Example 63, 4-methoxy-N-(5-oxo-5,6,7,8-tetrahydro-1,6-naphthyridine-3-yl)-2',3',4',5'-tetrahydro-[1,1'-biphenyl]-3-sulfonamide], the inhibition at 1 µM in the assay with saos-2 cells is below 0%. At TNAP, this compound had a pIC50 of 6.00 to 7.00.
Consider `O=C1NCCCc2ncc(NS(=O)(=O)c3cc(Br)cc4c3OCC4)cc21` [Example 17, 5-bromo-N-(5-oxo-6,7,8,9-tetrahydro-5H-pyrido[3,2-c]azepine-3-yl)-2,3-dihydrobenzofuran-7-sulfonamide], for which, in the assay on saos-2 cells, the inhibition at 1 µM was below 0%. Also, the pIC50 against TNAP is at most 6.00.
Taken in the same sequence, the figures for `COc1ccc(Br)cc1S(=O)(=O)Nc1cnc2c(c1)CN(C(C)C)CC2` [Example 113, 5-bromo-N-(6-isopropyl-5,6,7,8-tetrahydro-1,6-naphthyridine-3-yl)-2-methoxybenzenesulfonamide] were below 0% and 6.00 to 7.00.
In the case of `COc1ccc(-c2cnn(C3CCN(C(=O)OC(C)(C)C)CC3)c2)cc1S(=O)(=O)Nc1cnc2c(c1)C(=O)NCC2` [Example 85, tert-butyl 4-(4-(4-methoxy-3-(N-(5-oxo-5,6,7,8-tetrahydro-1,6-naphthyridine-3-yl)sulfamoyl)phenyl)-1H-pyrazole-1-yl)piperidine-1-carboxylate], the inhibition at 1 µM with saos-2 cells was below 0%. This compound gave a pIC50 against TNAP of 6.00 to 7.00.
Regarding `O=C1NCCc2ncc(NS(=O)(=O)c3c(F)cc(F)cc3-c3ccc(C4(C(=O)O)CC4)cc3)cc21` [Example 37, 1-(3',5'-difluoro-2'-(N-(5-oxo-5,6,7,8-tetrahydro-1,6-naphthyridine-3-yl)sulfamoyl)-[1,1'-biphenyl]-4-yl)cyclopropane-1-carboxylic acid], the inhibition at 1 µM in the assay on saos-2 cells is below 0%. On TNAP, the pIC50 is at most 6.00.
On to `COc1ccc(-c2ccc(CC(=O)O)cc2)cc1S(=O)(=O)Nc1cnc2c(c1)C(=O)NCC2` [Example 33, 2-(4'-methoxy-3'-(N-(5-oxo-5,6,7,8-tetrahydro-1,6-naphthyridine-3-yl)sulfamoyl)-[1,1'-biphenyl]-4-yl)acetic acid], for which the inhibition at 1 µM with saos-2 cells is at least 50%. Besides, on TNAP, the pIC50 was 7.00 to 8.00.
For `COc1ccc(C2=CCN(C(=O)OC(C)(C)C)CC2)cc1S(=O)(=O)Nc1cnc2c(c1)C(=O)NCC2` [Example 52, tert-butyl 4-(4-methoxy-3-(N-(5-oxo-5,6,7,8-tetrahydro-1,6-naphthyridine-3-yl)sulfamoyl)phenyl)-3,6-dihydropyridine-1(2H)-carboxylate], the inhibition at 1 µM with saos-2 cells is at least 50%. At TNAP, this compound had a pIC50 of 6.00 to 7.00.
Turning to `COc1ccc(OC)c(S(=O)(=O)Nc2cnc3c(c2)C(=O)NCCC3)c1` [Example 16, 2,5-dimethoxy-N-(5-oxo-6,7,8,9-tetrahydro-5H-pyrido[3,2-c]azepine-3-yl)benzenesulfonamide], in the assay on saos-2 cells, the inhibition at 1 µM was at least 50%. At TNAP, this compound showed a pIC50 of 6.00 to 7.00.
In the case of `CCCCn1cc(-c2ccc(OC)c(S(=O)(=O)Nc3cnc4c(c3)C(=O)NCC4)c2)cn1` [Example 123, 5-(1-butyl-1H-pyrazole-4-yl)-2-methoxy-N-(5-oxo-5,6,7,8-tetrahydro-1,6-naphthyridine-3-yl)benzenesulfonamide], the inhibition at 1 µM with saos-2 cells is at least 50%. For the same compound, the pIC50 against TNAP was 7.00 to 8.00.
On to `O=C1NCCc2ncc(NS(=O)(=O)c3cc(F)cc4c3OCC4)cc21` [Example 23, 5-fluoro-N-(5-oxo-5,6,7,8-tetrahydro-1,6-naphthyridine-3-yl)-2,3-dihydrobenzofuran-7-sulfonamide], for which the inhibition at 1 µM with saos-2 cells was below 0%. The compound also had a pIC50 on TNAP of at most 6.00.
`CCNC(=O)CCc1ccc(-c2ccc(OC)c(S(=O)(=O)Nc3cnc4c(c3)C(=O)NCC4)c2)cc1` [Example 67, N-ethyl-3-(4'-methoxy-3'-(N-(5-oxo-5,6,7,8-tetrahydro-1,6-naphthyridine-3-yl)sulfamoyl)-[1,1'-biphenyl]-4-yl)propanamide]: in the assay with saos-2 cells, the inhibition at 1 µM lay in the range of 0 to 50%. The pIC50 at TNAP was 6.00 to 7.00.
Consider `COc1ccc(Cl)cc1S(=O)(=O)Nc1cnc2c(c1)CN(C(=O)NCCF)CC2` [Example 117, 3-((5-chloro-2-methoxyphenyl)sulfonamido)-N-(2-fluoroethyl)-7,8-dihydro-1,6-naphthyridine-6(5H)-carboxamide], for which, in the assay on saos-2 cells, the inhibition at 1 µM is at least 50%. At TNAP, the pIC50 was 7.00 to 8.00.
On to `COc1ccc(F)cc1S(=O)(=O)Nc1cnc2c(c1)C(=O)NCC2` [Example 8, 5-fluoro-2-methoxy-N-(5-oxo-5,6,7,8-tetrahydro-1,6-naphthyridine-3-yl)benzenesulfonamide], for which the inhibition at 1 µM with saos-2 cells is at least 50%. The pIC50 against TNAP was 7.00 to 8.00.
Taken in the same sequence, the figures for `O=C1NCc2ncc(NS(=O)(=O)c3c(F)cc(F)cc3Br)cc21` [Example 12, 2-bromo-4,6-difluoro-N-(5-oxo-6,7-dihydro-5H-pyrrolo[3,4-b]pyridine-3-yl)benzenesulfonamide] were below 0% and at most 6.00.
Regarding `COc1ccc(Cl)cc1S(=O)(=O)Nc1cnc2c(c1)CN(C(=O)CC(C)(C)C)CC2` [Example 118, 5-chloro-N-(6-(3,3-dimethylbutanoyl)-5,6,7,8-tetrahydro-1,6-naphthyridine-3-yl)-2-methoxybenzenesulfonamide], in the assay with saos-2 cells, the inhibition at 1 µM was at least 50%. This compound had a pIC50 against TNAP of 7.00 to 8.00.
With `COc1ccc(-c2cnn(C3CCNCC3)c2)cc1S(=O)(=O)Nc1cnc2c(c1)C(=O)NCC2` [Example 86, 2-methoxy-N-(5-oxo-5,6,7,8-tetrahydro-1,6-naphthyridine-3-yl)-5-(1-(piperidine-4-yl)-1H-pyrazole-4-yl)benzenesulfonamide hydrochloride], the inhibition at 1 µM with saos-2 cells is below 0%. The same compound gave a pIC50 on TNAP of 6.00 to 7.00.
As to `COc1ccc(-c2cnn(CC(=O)OC(C)(C)C)c2)cc1S(=O)(=O)Nc1cnc2c(c1)C(=O)NCC2` [Example 47, tert-butyl 2-(4-(4-methoxy-3-(N-(5-oxo-5,6,7,8-tetrahydro-1,6-naphthyridine-3-yl)sulfamoyl)phenyl)-1H-pyrazole-1-yl)acetate], the inhibition at 1 µM in the assay on saos-2 cells is at least 50%. The pIC50 at TNAP was 6.00 to 7.00.
In the case of `COc1ccc(-c2cnn(S(C)(=O)=O)c2)cc1S(=O)(=O)Nc1cnc2c(c1)C(=O)NCC2` [Example 75, 2-methoxy-5-(1-(methylsulfonyl)-1H-pyrazole-4-yl)-N-(5-oxo-5,6,7,8-tetrahydro-1,6-naphthyridine-3-yl)benzenesulfonamide], the inhibition at 1 µM with saos-2 cells is at least 50%. At TNAP, this compound gave a pIC50 of 6.00 to 7.00.
Consider `O=C1NCCc2ncc(NS(=O)(=O)c3ccc4c(c3)OCCO4)cc21` [Example 24, N-(5-oxo-5,6,7,8-tetrahydro-1,6-naphthyridine-3-yl)-2,3-dihydrobenzo[b][1,4]dioxine-6-sulfonamide], for which the inhibition at 1 µM in the assay with saos-2 cells was below 0%. Moreover, the negative logarithm of the IC50 (pIC50) against TNAP is at most 6.00.
For `COc1ccc(Cl)cc1S(=O)(=O)Nc1cncc(C(N)=O)c1` [SBD-425, reference compound], at TNAP, the pIC50 was 6.00 to 7.00.
